# Source: US20140099354A1, “BIOPASSIVATING MEMBRANE STABILIZATION BY MEANS OF NITROCARBOXYLIC ACID-CONTAINING PHOSPHOLIPIDS IN PREPARATIONS AND COATINGS” (priority 2011, published 2014)
# Experiments:
# [1] = target: Glycophorin A (GpA) peptides (Homo sapiens, UniProt P02724); settings: 10-50% (mol/mol) admixed to DSPC vesicles; versus native phospholipids
# Description: The change of the Frster resonance energy transfer (FRET) of fluorescence-labelled peptides with α helical trans-membrane structure in a double lipid layer can be used for determination of the concentration of monomeric and dimeric trans-membrane helices and for quantitative determination of helix-helix interactions.
# FRET measurements were carried out with fluorescence-marked Glycophorin A (GpA) peptides. The transmembrane GpA forms dimers, whereby the energy transfer can be measured. 5-carboxyfluorescein and tetramethyl-6-carboxyrhodamine were used as chromophores.
# Degree of dimerization of the model protein was measured in a direct comparison between native phospholipids and the corresponding phospholipids with a nitrated alkyl chain for the given concentrations of phospholipids (10-50%, mol/mol) admixed to the DSPC vesicles.
# For determination of the dimerization, the peptides of FL GpAwt and TAMRA GpAwt were weighed and dissolved in TFE. The measurements were carried out on a fluorescence spectrometer of type Aminco Bowman series 2 (Thermo Spectronic).
# [2] = system: HeLa, HUVEC and L929 fibroblast; experiment: Volumetric measurement of cells (Coulter counter); format: cell-based; settings: time-dependent increase after incubation
# Description: (§1) Physiologically occurring phospholipids can be taken up by virtually all cell lines in large quantities. It is known that phospholipids that contain non-physiologically occurring fatty acid residues can cause cell lyses or death. Three cell lines (HeLa, HUVEC and L929 fibroblast) were cultured in a suitable culture medium of 5% FCS at 37° C. and 5% CO2 concentrations to a subconfluent concentration of 1.5×10^5 cells.
# (§2) SOPC, DOPC, POPC, ONOPC, PNLPC, and the free fatty acids of OA, LA, NOOA, and NOLA were dissolved in 0.5% DMSO. Experiments were performed also with nitro-carboxylic acid-containing phospholipids according to examples N15-N20, G, O3, O5, P2, P5, P8, P9, P11 and Q. PL prepared as aqueous suspensions were added the culture flasks in order to achieve PL concentrations in the culture medium from 10 μmol to 1 mmol. Cell cultures were incubated for 24 h and 48 h. Thereafter, the culture medium was removed and the cells washed twice. Following this, cells suspensions were given in four vials to perform the following analysis:
# Volumetric measurement of cells was done in a Histopenz (Sigma) solution with an effective NaCl concentration of 0.9% (approximately 290 mOsm) heated to 37° C. in which the cells were suspended; thereafter the solution was sonified for 2 minutes. Measurements were done using a Coulter counter Z2.
# [3] = system: HeLa, HUVEC and L929 fibroblast; experiment: cells; format: cell-based; settings: tested concentrations 10 μmol to 1 mmol; EC50 could not be calculated
# [4] = Transisomerization of unsaturated fatty acids in coatings on balloon catheters (FTIR); format: physicochemical
# From the text: The natural phospholipids POPC and SLPE, as well as the analogous nitrated phospholipids as shown in example C(PNOPC) and […]), as well as the phospholipids according to examples […], and S as a mono substance and as a combination of the native phospholipids and the corresponding nitro-carboxylic acid (s)-containing phospholipids mixed in a ratio of 1:1 were used for this investigation. Balloon catheters were coated by means of the Langmuir-Schaefer procedure where the balloon segment was aligned longitudinally and coaxial to the solution surface, dipping into the liquid for approx. 1 mm over the entire length. Then the catheter was slowly rotated around its axis 5 times. […] The solution was cooled and given to the coating solution then. In case of incomplete dissolution of the phospholipids or if they separated when cooled, DMSO was added at a concentration of up to 20 vol.-%, preferably up to 10 vol.-%. After coating, the catheters were vacuum dried for 8 hours in order to remove residual solvent. The abrasion or loss of coating layers was determined by weighing the catheter before and after coating as well as after the mechanical stability test in the tubing system as described above using a high precision balance. In order to examine the long-term stability of the coating, catheters coated with phospholipids were sealed with polyethylene glycol 1000 (Roth, Germany). For that purpose PEG 1000 was melted and mixed with a 10% ethanol solution at 50° C. A portion of the phospholipid-coated balloon catheter was coated by means of dip-coating in this PEG solution at 50° C., and dried thereafter for 8 hours. Stability of cis-conformity of unsaturated fatty acids of the phospholipids investigated was determined after heat treatment at 60° C. for three hours in a heating cabinet. After 24 hours and after 2 months the phospholipids coated on the balloon surface were detached and analyzed. Detachment was carried out in 50 ml of a chloroform:methanol mixture (3:1, v: v). A 10 μl aliquot was used for a FTIR spectroscopy. For this purpose the samples were dropped on a ZnSe ATR crystal and then the solvent was evaporated. Degree of transisomerization was determined using the integral of intensity of proton resonance in comparison to that measured from a cis configuration of the reference substances. Measurements were performed 24 hours after coating, heat treatment and after 2 months of storage at 25° C. under sterile room air conditions.
# [5] = system: HeLa, HUVEC and L929 fibroblast; experiment: Cell viability with the live/dead assay; format: cell-based
# Description: as §1, §2
# Studies of cell viability were carried out with the live/dead assay (Molecular Probes). For this purpose, the cells were washed twice with PBS solution and then seeded into a culture medium. Incubation with the staining solution (in 0.1% DMSO) was carried out over 30 minutes in the dark. The viability analyses were performed using fluorescence microscopy.
# [6] = system: ovarian tissue strips; experiment: Cryopreservation of ovarian tissue strips: intact follicles; settings: liquid nitrogen 14 days, cultured 14 days
# Description: (§3) Ovar ectomy was performed in female sheep; resected tissues were cut into 60 ovarian tissue strips. The ovarian strips were either cultured directly (n=4) or prepared with a usual solution for vitrification (VS group; Vitrification Kit, Sage, USA) or incubated with nitrated PLs (NPL group). For this purpose, the tissue strips were bathed in an equibrilation solution (ART-8025-A) which consisted of MOPS-buffered amino acids and gentamicin sulfate (10 mg/l), and 7.5% (v/v) of each DMSO and ethylene glycol and 12 mg/ml human serum albumin for 30 minutes. Thereafter the strips of the VS group were placed in the vitrification solution (ART-8025-B), which is a MOPS-buffered solution containing amino acids and gentamicin sulfate, that contain 15% (v/v) each DMSO and ethylenglycol, 12 mg/ml human albumin and 0.6 M sucrose. The strips of the NPL group were placed in a solution containing 25% (v/v) nitrated PL SNOPC or PNLPC in a PBS-buffered 1% DMSO solution containing 5% human albumin for 60 minutes. The treated tissue strips were then immersed into liquid nitrogen and kept here for 14 days. Then removal and warming of the tissue pieces was performed in AIM-V medium (Gibco, Invitrogen) in a sterile culture dish, first up to 5° C. within 20 minutes, then heated further in a water bath up to 37° C., within the following 60 minutes. The culture medium was replaced and specimens cultured for 14 days. After this, the tissue pieces were fixed, embedded in paraffin and cut, followed by histological examination. […] The total number of intact follicles in the control group was taken as a reference to the number of follicles in the cryopreserved groups.
# (§4) The culture medium has been exchanged by every 2nd day; samples for hormone analysis were taken and frozen at that time. Determination of 17 β-estradiol and progesterone were performed with a radio-immuno assay (diagnostic systems laboratories, USA).
# [7] = system: sciatic nerve; experiment: Viability of cryopreserved nerve grafts (Annexin-V staining, FACS); format: cell-based, rats; settings: 100 mmolar solution 1 hour; −30° C. 72 hours
# Description: The sciatic nerve was prepared and sectured in anesthetized rats. The nerve pieces were freed from connective tissue and divided into 3 parts. Specimens were placed in culture DMEM medium containing low a concentration of glucose (1 g/L) with L-glutamine (PAA, Pasching Austria) for 24 hours. […] Nerve specimens from the same animals that received no pretreatment served as controls. After incubation, the specimens were cultured for 24 hours. In a further control group, specimens were cryopreserved without any pretreatment. The specimens were covered with a sterile gauze pad moistened with culture medium. Thereafter the temperature was gradually cooled to −30° C. After 72 hours, the nerve pieces were gradually rewarmed to 37° C. After this, renewed culturing was done for 48 hours. The nerve pieces were dissected enzymatically then (collagenase A and D, Roche, Mannheim, Germany) followed by a mechanical separation through multiple uptake and release in a glass pipette. The isolated cells were washed and marked with a living/death staining (Annexin-V-Fluos staining Kit, Roche Diagnostics, Mannheim, Germany) and quantified using FACS analysis. The number of living cells identified was set in relation to the total cells count.
# [8] = system: human umbilical venous endothelial cells (HUVEC); experiment: Endothelial cell homing on coated cobalt-chromium metal grids; format: cell-based; settings: days 3, 7 and 14
# Description: To investigate the cell homing of endothelial cells onto phospholipid-coated artificial surfaces, metal grids with a cobalt-chromium alloy such as has been described in example 2 were coated. Coatings were performed with nitro-carboxylic acid-containing phosphatidylcholine according to the examples N2-N6 and O6. These were special product mixtures of different esterified 1,2-di(nitro linoleoyl)-sn-glycero-3-phosphatidylcholines (N2), from different esterified 1,2-di(nitro arachidonoyl)-sn-glycero-3-phosphatidylcholines (N3), from different esterified 1,2-di(nitroarachidonoyl)-sn-glycero-3-phosphatidylcholines (N4), different esterified 1,2-di(nitro-γ-linolenoyl)-sn-glycero-3-phosphatidylcholines (N5) or different esterified 1,2-di(nitro-DHA)-sn-glycero-3-phosphatidylcholines (N6) and mixture of 1-palmitoyl-2-(10-hydroxy-9-nitro-α-linolenoyl)-sn-3-glycero-phosphocholine and 1-palmitoyl-2-(9-hydroxy-10-nitro-α-linolenoyl)-sn-3-glycero-phosphocholine (06). Uncoated metal grids served as controls. The grids were placed in a culture dish containing a gel matrix on which human umbilical venous endothelial cells (HUVEC) were grown to confluence. The culture media consisted of 5% FCS, and was changed every second day. Cultivation was performed according to standard procedures. The culture dishes were carefully washed superficially several times after 3, 7, and 14 days with saline. […]
# [9] = system: cortical neurons; experiment: Hypoxia and reperfusion of cortical neurons (viability, LDH)
# Description: To determine whether the membrane-stabilizing properties of nitrated phospholipids can lead to attenuation of effects due to an ischemic event or the re-perfusion damage, cortical neurons and cardiac myocytes were investigated.
# Freshly prepared cortex tissue was separated with Papain and tissue suspensions were cultured in culture vessels (Prim ARA; BD Biosciences, USA) with Neurobasal A/B27 medium (Invitrogen) for 10-12 days. Cell suspensions were divided, and replenished with suspensions of the natural phospholipids SOPC and PLPC, as well as the analogue phospholipids with nitration of unsaturated fatty acids (1-stearoyl-2-(9-nitrooleoyl)-sn-PC and 1-palmitoyl-2-(9-nitrolinoleoyl)-sn-PC) at concentrations of 10 to 50 μmol/l in NaCl (0.9%) were added. […] After 4 hours, the cells were washed three times with buffered saline and buffered NaCl solution with the addition of MgCl2 and CaCl2 in an anaerobic atmosphere (85% N2, 5% O2, 10% CO2; at 35° C.) for 10 and 30 minutes. Then, the cells were washed once and grown in culture medium under aerobic conditions for 24 hours. […] Cells were stained with annexin V-FITC and propidium iodide (Molecular probes, USA). The vital and necrotic cells were measured by flow cytometry (FACSCalibur, Becton & Dickinson). The volume of culture medium was determined and an aliquot was taken for determination of the LDH (lactate dehydrogenase) concentration.
# [10] = Tissue response to coated silicone implants in vivo after bleomycin; design: species or system Wistar rats; settings: silicone cushions, subcutaneous, 7 to 90 days
# [11] = system: Heart muscle cells from rabbit hearts; experiment: Cytosolic Ca2+ concentration in heart muscle cells (fluo-4 fluorescence); format: cell-based
# Description: Heart muscle cells were taken from rabbit hearts according to a method described elsewhere (Shannon T R, Ginsburg K S, Bers D M. Quantitative assessment of the SRCa^2+ leak-load relationship. Circ Res. 2002; 91:594-600). The prepared cells were cultured for 72 hours.
# The cytosolic Ca^2+ concentrations were determined with fluo-4 fluorescence. Therefore the cells were incubated with 10 μmol fluo-4 AM (1%) for 30 minutes and washed thereafter three times with PBS. The cells were stimulated in a Tryode solution on a platinum electrode with a frequency of 0.5 Hz over 20 cycles. Then the ambient medium was changed and an electrolyte-free colloidal solution was added. Determination of the Ca concentration was performed after each series of stimulation over 20 cycles. Calcium content was estimated by the use of confocal laser scanning microscopy (Olympus). At least 10 cells per experiment were evaluated in a post-systolic interval of 1000 ms. The measurements were repeated at least three times. β-adrenergic stimulation was performed with 250 nmol/L isoproterenol, which was given to the medium.
# [12] = system: ovarian tissue strips; experiment: Cryopreservation of ovarian tissue strips: 17 β-estradiol and progesterone (radio-immuno assay); format: cell-based, sheep; settings: after cryopreservation and culture
# Description: as §3, §4
# [13] = system: TRPV1, 2 and 4, TRPA1; experiment: Inducible ion current of TRP receptors in Xenopus oocytes (voltage clamp); format: cell-based, rat; settings: 50 mmol/l, 10 and 60 minutes
# Description: An established in-vitro model of Xenopus oocytes (Dascal N, 1987 The use of Xenopus oocytes. CRC critical reviews in biochemistry 22, 317-387) was used to study the influence of incubation with PL on ion channels regulated by membrane receptors. Defolliculized oocytes were transfected with cRNA (rat) of TRPV1, 2 and 4, as well as of TRPA1, stored in tissue culture plates and incubated in culture medium (ND 96) at 15° C. under constant motion in the incubator for 7 to 10 days.
# Induced leakage currents through activation of the TRP receptors was determined by means of double electrode voltage-clamp technique (Ahern G P, Brooks I M, Miyares R L &Wang X B, 2005, Extracellular cations sensitize and gate capsaicin receptor TRPV1 modulating pain signalling. J Neurosci 25, 5109-5116). Ooocytes were probed with borosilicate glass capillaries (Clark) and connected to a feedback amplifier (Gene clamp Amplifier, Axon instruments). The membrane potential of oocytes was clamped to −60 or −90 mV. The presence of a directive […] current was compared to non-transfected controls. The investigations were performed in a miniature organ bath in calcium-free buffered (Hepes, pH 7.3) NaCl solution. The TRPV1 receptor excitation was initiated by rapidly changing of the bath solution against a capsaicin solution (10 μmol). Results of non-pretreated oocytes were used for normative comparison of subsequent measurements of incubatesd cells. Investigations with incubated cells were carried out in the same way for oocytes transfected with the TRPV2, and TRPV4 and TRPA1 receptors, wherein the receptor agonists cannabidiol (10 μmol) and 4α-PDD (4α-phorbol 12,13-didecanoate, 50 μmol) and innamaldehyde (50 μmol) were used instead of capsaicin.
# [14] = system: Cardiac muscle cells derived from neonatal rat heart; experiment: Hypoxia of cardiac muscle cells (viability, mitochondrial NAD+); format: cell-based; settings: for mitochondrial NAD+ content: hypoxia, baseline 5
# Description: Cardiac muscle cells derived from neonatal rat heart (Nitobe J, et al, Reactive oxygene species regulate FLICE inhibitory protein and susceptibility to FAS-mediated apoptosis in cardiac myocytes. Cardiovasc RES 2003, 119-28). The heart muscle cells were cultured in Dulbecco/Eagle medium (DMEM) with 10% FCS added under standard conditions for two days. Incubation with the natural and nitrated phospholipids, as well as the hypoxia experiments were carried out as described above. Incubated cells were grown in culture medium under standard conditions for 24 hours. This is followed by a vitality staining as described above. […] The frozen cells were thawed up to -4° C. and homogenized for subsequent NAD^+ analyses. By means of differential centrifuge, pellets containing mitochondria were separated (Di Lisa, et al, 1993; Am. J. Physiol. 264, […]-[…]). The NAD^+ content was determined by fluoroscopy, and normalized to the protein content (Veloso, D., and […]., 1974;) Anal. Biochem., 449-450).
# Chain of Glycophorin A (GpA) peptides (P02724 92-114 limits assumed, species assumed): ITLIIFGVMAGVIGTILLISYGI
compound,measurement,setting,value
"CCCCC/C=C\C/C=C(\CCCCCCCC(=O)O[C@H](COC(=O)CCCCCCCCCCCCCCCCC)COP(=O)([O-])OCC[N+](C)(C)C)[N+](=O)[O-] [Example P13, 1-stearoyl-2-(E-9-nitrolinoleoyl)-sn-3-glycerophosphocholine]",degree of dimerization of the model membrane protein,[1],significantly greater reduction of dimerization
"CCCCCCCC/C=C\CCCCCCCC(=O)O[C@H](COC(=O)CCCCCCCCCCCCCCC)COP(=O)([O-])OCC[N+](C)(C)C [POPC, 1-Palmitoyl-2-oleoyl-sn-glycero-3-PC, reference compound]",cell volume (increase in size to),[2],160%
same,viability as quantified by the MTT assay,[3],only slightly decreased
same,proportion of trans-fatty acids,"[4]; after heat treatment (60° C., three hours)",80%
same,degree of transisomerization,[4]; coatings after 2 months,95%
same,degree of transisomerization,"[4]; top coating with PEG, after 2 month",86%
same,viability according to the live/dead staining,[5],high rate of viability
"1,2-di-(nitrolinoleoyl)-sn-glycero-3-phosphatidylcholines [Example N2]",rate of intact follicles relative to the control group,[6],94%
same,proportion of living cells relative to non-frozen control,[7],79%
same,endothelial cell coverage and growth on coated struts,[8],slight tendency for a stronger growth of cells
"CCCCCCCC/C=C(\CCCCCCCC(=O)O[C@H](COC(=O)CCCCCCCCCCCCCCCCC)COP(=O)([O-])OCC[N+](C)(C)C)[N+](=O)[O-] [Example P14, 1-stearoyl-2-(E-9-nitrooleoyl)-sn-3-glycerophosphocholine]",increase in LDH versus normoxemia culture,[9]; 10-minutes ischemia,120 fold
same,viability of cortical cells measured after 24 hours,[9]; 10-minutes ischemia,68%
same,increase in LDH versus normoxemia culture,[9]; 30-minutes ischemia,230 fold
same,viability of cortical cells measured after 24 hours,[9]; 30-minutes ischemia,54%
same,rate of intact follicles relative to the control group,[6],96%
same,degree of dimerization of the model membrane protein,[1],significantly greater reduction of dimerization
same,biocompatibility of coated implants compared to natural PLs,[10],improved biocompatibility of implants several-fold
same,proportion of living cells relative to non-frozen control,[7],86%
same,end of diastole (ED) cytosolic calcium,[11]; after hypoxia,80 nmol/L
same,post systolic (PS) cytosolic calcium,[11]; after hypoxia,40 nmol
same,end of diastole (ED) cytosolic calcium,[11]; after hypoxia and stimulation with isoproterenol,90 nmol/L
same,end of diastole (ED) cytosolic calcium,[11]; normoxic conditions,30 nmol/L
same,post systolic (PS) cytosolic calcium,[11]; normoxic conditions,10 nmol
same,estradiol,[12],8.6 ng/mL
same,progesterone,[12],0.6 ng/mL
same,inducible membrane channel activity of TRP channels,[13],significant decrease of inducible membrane channel activity
same,loss of viability of heart muscle cells after hypoxia,[14]; (10 minutes),6%
same,loss of viability of heart muscle cells after hypoxia,[14]; (30 minutes),16%
same,mitochondrial NAD+ content,[14]; first printed value,3.8 nmol/mg protein
same,mitochondrial NAD+ content,[14]; second printed value,3.3 nmol/mg protein
"1,2-di-(nitro-DHA)-sn-glycero-3-phosphatidylcholines [Example N6]",rate of intact follicles relative to the control group,[6],92%
same,proportion of living cells relative to non-frozen control,[7],72%
same,endothelial cell coverage and growth on coated struts,[8],slight tendency for a stronger growth of cells
